The values below come from US20180208605A1, “Substituted Aza Compounds as IRAK-4 Inhibitors” (AURIGENE DISCOVERY TECHNOLOGIES LIMITED, priority 2015, published 2018).

Structures can show the parent of a compound that is named as a salt.

As usually defined, the inhibition is the relative decrease from the control value, in per cent.

The target in this assay is T1, recombinant IRAK-4 kinase (Homo sapiens, UniProt Q9NWZ3).
T1 construct: purchased Millipore, USA
T1 sequence (Q9NWZ3 1-460): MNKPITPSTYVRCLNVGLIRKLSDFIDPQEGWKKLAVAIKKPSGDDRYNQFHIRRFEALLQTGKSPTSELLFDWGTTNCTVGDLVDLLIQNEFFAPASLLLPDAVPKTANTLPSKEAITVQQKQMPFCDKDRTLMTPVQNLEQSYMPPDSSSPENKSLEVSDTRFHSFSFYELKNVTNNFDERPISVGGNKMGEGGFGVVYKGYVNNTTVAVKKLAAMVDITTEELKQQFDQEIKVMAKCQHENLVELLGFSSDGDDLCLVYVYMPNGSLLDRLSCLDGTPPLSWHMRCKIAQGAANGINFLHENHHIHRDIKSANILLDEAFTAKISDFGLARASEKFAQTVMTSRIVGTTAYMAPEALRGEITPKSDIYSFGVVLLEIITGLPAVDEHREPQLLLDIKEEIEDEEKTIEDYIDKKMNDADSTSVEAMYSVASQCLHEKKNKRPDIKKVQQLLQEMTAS
The assay is described as follows: IRAK-4 Biochemical Assay (TR-FRET, percent inhibition). As to conditions: TR-FRET, 20 μM ATP, 100 nM Biotin Histone H3; for inhibition at 0.1 µM: read-out: % inhibition of IRAK-4 @0.1 μM, compound at 0.1 μM; for inhibition at 1 µM: read-out: % inhibition of IRAK-4 @ 1 μM, compound at 1 μM. The essentials: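 IRAK-4 pre-incubated with compound 30 min at room temperature in Tris-HCl pH 7.5 buffer with MgCl2, MnCl2 and DTT, then reacted 30 min with 100 nM biotin-histone H3 and 20 μM ATP. EDTA stop with Eu-anti-phospho-H3 (Ser10) and APC-streptavidin. Percent inhibition derived from the 665/615 nm emission ratio at 340 nm excitation.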

Take `O=C(Nc1cc2sc(N3CCOCC3)nc2nc1N1CCCCC1)c1cccc(N2CCC(C(=O)O)CC2)n1` [Example 71, sodium 1-(6-((2-morpholino-5-(piperidin-1-yl)thiazolo[4,5-b]pyridin-6-yl)carbamoyl)pyridin-2-yl)piperidine-4-carboxylate]: the inhibition at 0.1 µM stood at 94% and the inhibition at 1 µM stood at 96%.

With `Cc1cc(-c2c[nH]c(C(=O)Nc3cc4sc(N5CCOCC5)nc4nc3N3CC[C@@H](O)C3)n2)ccn1` [Example 72, (R)-N-(5-(3-hydroxypyrrolidin-1-yl)-2-morpholinothiazolo[4,5-b]pyridin-6-yl)-4-(2-methylpyridin-4-yl)-1H-imidazole-2-carboxamide 2,2,2-trifluoroacetate], the inhibition at 0.1 µM stood at 98% and the inhibition at 1 µM stood at 97%.

`Cc1cc(-c2c[nH]c(C(=O)Nc3cc4sc(N5CCOCC5)nc4nc3N3CC[C@@H](O)C3)c2)ccn1` [Example 73, (R)-N-(5-(3-hydroxypyrrolidin-1-yl)-2-morpholinothiazolo[4,5-b]pyridin-6-yl)-4-(2-methylpyridin-4-yl)-1H-pyrrole-2-carboxamide]: the inhibition at 0.1 µM stood at 69% and the inhibition at 1 µM was found to be 97%.

Turning to `COc1ccc(-c2nc(C(=O)Nc3cc4sc(N5CCOCC5)nc4nc3N3CCCCC3)co2)nc1` [Example 74, 2-(5-methoxypyridin-2-yl)-N-(2-morpholino-5-(piperidin-1-yl)thiazolo[4,5-b]pyridin-6-yl)oxazole-4-carboxamide], the inhibition at 0.1 µM was determined as 89% and the inhibition at 1 µM was 95%.

`Nc1ccc(-c2cccc(C(=O)Nc3cc4sc(N5CCOCC5)nc4nc3N3CCCCC3)n2)cn1` [Example 75, 6′-amino-N-(2-morpholino-5-(piperidin-1-yl)thiazolo[4,5-b]pyridin-6-yl)-[2,3′-bipyridine]-6-carboxamide]: the inhibition at 0.1 µM is 98% and the inhibition at 1 µM turned out to be 78%.

As for `O=C(Nc1cc2sc(N3CCOCC3)nc2nc1N1CCOCC1)c1cccc(N2CCC(O)C2)n1` (stereo not drawn) [Example 76, N-(2,5-dimorpholinothiazolo[4,5-b]pyridin-6-yl)-6-(3-hydroxypyrrolidin-1-yl)picolinamide], the inhibition at 0.1 µM was 92% and the inhibition at 1 µM was 97%.

On to `O=C(Nc1cc2sc(N3CCOCC3)nc2nc1N1CCCCC1)c1cccc(N2CCC(CO)C2)n1` (stereo not drawn) [Example 77, 6-(3-(hydroxymethyl)pyrrolidin-1-yl)-N-(2-morpholino-5-(piperidin-1-yl)thiazolo[4,5-b]pyridin-6-yl)picolinamide], for which the inhibition at 0.1 µM is 98% and the inhibition at 1 µM amounted to 99%.

In the case of `O=C(Nc1cc2sc(N3CCOCC3)nc2nc1N1CCCCC1)c1cccc(N2CCCC(CO)C2)n1` (stereo not drawn) [Example 78, 6-(3-(hydroxymethyl)piperidin-1-yl)-N-(2-morpholino-5-(piperidin-1-yl)thiazolo[4,5-b]pyridin-6-yl)picolinamide], the inhibition at 0.1 µM stood at 99% and the inhibition at 1 µM is 96%.

Consider `NCC(=O)OC1CCN(c2cccc(C(=O)Nc3cc4sc(N5CCOCC5)nc4nc3N3CCOCC3)n2)C1` (stereo not drawn) [Example 79, 1-(6-((2,5-dimorpholinothiazolo[4,5-b]pyridin-6-yl)carbamoyl)pyridin-2-yl)pyrrolidin-3-yl glycinate], for which the inhibition at 0.1 µM came out at 70% and the inhibition at 1 µM amounted to 96%.

Regarding `O=C(Nc1cc2sc(N3CCOCC3)nc2nc1N1CCCCC1)c1cccc(N2CCC(C(=O)O)CC2)n1` [Example 80, 1-(6-((2-morpholino-5-(piperidin-1-yl)thiazolo[4,5-b]pyridin-6-yl)carbamoyl)pyridin-2-yl)piperidine-4-carboxylic acid], the “% inhibition of IRAK-4 @0.1 μM” value (compound at 0.1 μM) came to 96%. Further, the “% inhibition of IRAK-4 @ 1 μM” value (compound at 1 μM) is reported as 99%.

Turning to `O=C(Nc1cc2sc(N3CCOCC3)nc2nc1N1CCCCC1)c1cccc(N2C3CCC2CC(O)C3)n1` (stereo not drawn) [Example 81, 6-(3-hydroxy-8-azabicyclo[3.2.1]octan-8-yl)-N-(2-morpholino-5-(piperidin-1-yl)thiazolo[4,5-b]pyridin-6-yl)picolinamide], the inhibition at 0.1 µM was determined as 88% and the inhibition at 1 µM is 94%.

With `NC(=O)C1CCN(c2cccc(C(=O)Nc3cc4sc(N5CCOCC5)nc4nc3N3CCCCC3)n2)CC1` [Example 82, 6-(4-carbamoylpiperidin-1-yl)-N-(2-morpholino-5-(piperidin-1-yl)thiazolo[4,5-b]pyridin-6-yl)picolinamide], the inhibition at 0.1 µM stood at 93% and the inhibition at 1 µM was 98%.

On to `Nc1cc(-c2cccc(C(=O)Nc3cc4sc(N5CCOCC5)nc4nc3N3CCCCC3)n2)ccn1` [Example 83, 2′-amino-N-(2-morpholino-5-(piperidin-1-yl)thiazolo[4,5-b]pyridin-6-yl)-[2,4′-bipyridine]-6-carboxamide], for which the inhibition at 0.1 µM is 99% and the inhibition at 1 µM was found to be 98%.

For `Cc1ccc(C(=O)Nc2cc3sc(N4CCOCC4)nc3nc2N2CCCCC2)nc1N1CC[C@H](O)C1` [Example 84, (S)-6-(3-hydroxypyrrolidin-1-yl)-5-methyl-N-(2-morpholino-5-(piperidin-1-yl)thiazolo[4,5-b]pyridin-6-yl)picolinamide], the inhibition at 0.1 µM is 94% and the inhibition at 1 µM is 98%.

`Cc1ccc(C(=O)Nc2cc3sc(N4CCOCC4)nc3nc2N2CCCCC2)nc1-c1ccc(N)nc1` [Example 85, 6′-amino-3-methyl-N-(2-morpholino-5-(piperidin-1-yl)thiazolo[4,5-b]pyridin-6-yl)-[2,3′-bipyridine]-6-carboxamide]: the inhibition at 0.1 µM came out at 101% and the inhibition at 1 µM was found to be 100%.

As for `Cc1cc(-c2nc(C(=O)Nc3cc4oc(N5CCOCC5)nc4nc3N3CC(C)(C)CC3=O)co2)ccn1` [Example 86, N-(5-(4,4-dimethyl-2-oxopyrrolidin-1-yl)-2-morpholinooxazolo[4,5-b]pyridin-6-yl)-2-(2-methylpyridin-4-yl)oxazole-4-carboxamide], the inhibition at 0.1 µM is 65% and the inhibition at 1 µM was determined as 57%.

As to `Nc1cccc(-c2nc(C(=O)Nc3cc4oc(N5CCOCC5)nc4nc3N3CC[C@@H](O)C3)co2)n1` [Example 87, (R)-2-(6-aminopyridin-2-yl)-N-(5-(3-hydroxypyrrolidin-1-yl)-2-morpholinooxazolo[4,5-b]pyridin-6-yl)oxazole-4-carboxamide hydrochloride], the inhibition at 0.1 µM is 21% and the inhibition at 1 µM was 57%.

Consider `Nc1cc(-c2nc(C(=O)Nc3cc4oc(N5CCOCC5)nc4nc3N3CC[C@@H](O)C3)co2)c(Cl)cn1` [Example 88, (R)-2-(2-amino-5-chloropyridin-4-yl)-N-(5-(3-hydroxypyrrolidin-1-yl)-2-morpholinooxazolo[4,5-b]pyridin-6-yl)oxazole-4-carboxamide], for which the inhibition at 0.1 µM is 15%.

As to `Cc1cc(-c2nc(C(=O)Nc3cc4oc(N5CCOCC5)nc4nc3N3CCCC3=O)co2)ccn1` [Example 89, 2-(2-methylpyridin-4-yl)-N-(2-morpholino-5-(2-oxopyrrolidin-1-yl)oxazolo[4,5-b]pyridin-6-yl)oxazole-4-carboxamide hydrochloride], the inhibition at 0.1 µM came to 26% and the inhibition at 1 µM was found to be 73%.

As to `Nc1ccc(-c2cccc(C(=O)Nc3cc4oc(N5CCOCC5)nc4nc3N3CC[C@@H](O)C3)n2)cn1` [Example 90, (R)-6′-amino-N-(5-(3-hydroxypyrrolidin-1-yl)-2-morpholinooxazolo[4,5-b]pyridin-6-yl)-[2,3′-bipyridine]-6-carboxamide hydrochloride], the inhibition at 0.1 µM is 87% and the inhibition at 1 µM was found to be 97%.

As to `Cc1cc(-c2ccc(C(=O)Nc3cc4oc(N5CCOCC5)nc4nc3N3CC[C@@H](O)C3)o2)ccn1` [Example 91, (R)-N-(5-(3-hydroxypyrrolidin-1-yl)-2-morpholinooxazolo[4,5-b]pyridin-6-yl)-5-(2-methylpyridin-4-yl)furan-2-carboxamide hydrochloride], the inhibition at 0.1 µM came out at 45% and the inhibition at 1 µM was 92%.

As for `Nc1ccc(-c2cccc(C(=O)Nc3cc4oc(N5CCOCC5)nc4nc3N3CCOCC3)n2)cn1` [Example 92, 6′-amino-N-(2,5-dimorpholinooxazolo[4,5-b]pyridin-6-yl)-[2,3′-bipyridine]-6-carboxamide hydrochloride], the inhibition at 0.1 µM was determined as 78% and the inhibition at 1 µM is 96%.

As for `Nc1cccc(-c2nc(C(=O)Nc3cc4oc(N5CCOCC5)nc4nc3N3CCCCC3)co2)n1` [Example 93, 2-(6-aminopyridin-2-yl)-N-(2-morpholino-5-(piperidin-1-yl)oxazolo[4,5-b]pyridin-6-yl)oxazole-4-carboxamide], the inhibition at 0.1 µM came out at 87% and the inhibition at 1 µM amounted to 93%.
